Laboratory results: patent US11261186B2, “Biaryl derivative as GPR120 agonist” (LG CHEM, LTD., priority 2014, dated 2022)

Biological target: T1, hGPR120 (Homo sapiens, UniProt Q5NUL3)
T1 construct: expressed in transfected cells; host or cells: CHO-K1
T1 sequence (Q5NUL3 1-361): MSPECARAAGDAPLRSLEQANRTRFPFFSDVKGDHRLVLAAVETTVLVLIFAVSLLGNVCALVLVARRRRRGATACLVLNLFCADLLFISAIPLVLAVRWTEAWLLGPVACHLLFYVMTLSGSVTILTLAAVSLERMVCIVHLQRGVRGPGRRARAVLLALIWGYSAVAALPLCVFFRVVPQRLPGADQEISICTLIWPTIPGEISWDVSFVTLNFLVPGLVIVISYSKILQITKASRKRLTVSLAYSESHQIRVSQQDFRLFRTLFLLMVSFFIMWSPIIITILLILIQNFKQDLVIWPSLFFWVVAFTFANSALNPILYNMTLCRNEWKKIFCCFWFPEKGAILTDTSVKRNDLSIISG
Assay: Measurement of Activity of GPR120 Agonist (Cell-Based Assay), Calcium 5 dye fluorescence
Conditions: CHO-K1 cells expressing Ga16 and hGPR120
Summary of the method: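 CHO-K1 cells co-expressing Gα16 and hGPR120 were seeded, cultured 18 h at 37 °C, then loaded 1 h with Calcium 5 dye. Serially diluted agonists (final 0.5% DMSO) were added and fluorescence read at Ex 485/Em 525 nm, expressed as percent relative to 1% DMSO-only wells.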

SMILES | EC50 [nM]
O=C(O)CCCOc1c(F)cc(-c2cccnc2SC2CCCCC2)cc1F [Example 292, 4-[4-(2-cyclohexylsulfanyl-pyridin-3-yl)-2,6-difluoro-phenoxy]-butyric acid] | 2000 to 20000
CC(C)CNc1cncc(-c2cc(F)c(N3CCC(CC(=O)O)C3)c(F)c2)n1 (centres unmarked) [Example 503, 2-{1-[2,6-difluoro-4-(6-isobutylamino-pyrazin-2-yl)phenyl]pyrrolidin-3-yl}acetic acid] | 200 to 2000
CCN(CCCC(=O)O)c1c(F)cc(-c2cccnc2OC(C)C)cc1F [Example 226, 4-{[2,6-difluoro-4-(2-isopropoxy-pyridin-3-yl)-phenyl]-ethyl-amino}-butyric acid] | 200 to 2000
O=C(O)CC1CCN(c2c(F)cc(-c3ccc(COCC4CC4)s3)cc2F)CC1 [Example 569, {1-[4-(5-cyclomethoxymethyl-thiophen-2-yl)-2,6-difluoro-phenyl]-piperidin-4-yl}-acetic acid] | 2000 to 20000
COc1ccc(Oc2ccnc(-c3cc(F)c(N4CCC(CC(=O)O)CC4)c(F)c3)n2)cc1 [Example 514, 2-[1-[4-[4-(4-methoxyphenoxy)pyrimidin-2-yl]-2,6-difluoro-phenyl]-4-piperidyl]acetic acid] | 200 to 2000
COCCCOc1cc(C)nc(-c2cc(F)c(N3CCC(CC(=O)O)CC3)c(F)c2)n1 [Example 601, (1-{2,6-difluoro-4-[4-(3-methoxy-propoxy)-6-methyl-pyrimidin-2-yl]-phenyl}-piperidin-4-yl)-acetic acid] | 200 to 2000
CC(CCCC(=O)O)c1c(F)cc(-c2cc(Cl)cc3c2OC(C)(C)C3)cc1F (centres unmarked) [Example 256, 5-[4-(5-chloro-2,2-dimethyl-2,3-dihydro-benzofuran-7-yl)-2,6-difluoro-phenyl]-hexanoic acid] | 200 to 2000
CC(CCCC(=O)O)c1c(F)cc(-c2cncc(OC3CCC3)n2)cc1F (centres unmarked) [Example 399, 5-[4-[6-(cyclobutoxy)pyrazin-2-yl]-2,6-difluoro-phenyl]hexanoic acid] | < 200
O=C(O)CC1CCN(c2c(F)cc(-c3cccc4sc(-c5ccc(F)cc5)cc34)cc2F)CC1 [Example 615, (1-{2,6-difluoro-4-[2-(4-fluoro-phenyl)-benzo[b]thiophen-4-yl]-phenyl}-piperidin-4-yl)-acetic acid] | 2000 to 20000
O=C(O)CCCOc1c(F)cc(-c2csc(COC3CCC3)c2)cc1F [Example 573, 4-[4-(5-cyclobutoxymethyl-thiophen-3-yl)-2,6-difluoro-phenoxy]-butanoic acid] | < 200
O=C(O)CC1CCN(c2c(F)cc(-c3cccc(CC4CCCC4)n3)cc2F)CC1 [Example 376, 2-[1-[4-[6-(cyclopentylmethyl)-2-pyridyl]-2,6-difluoro-phenyl]-4-piperidyl]acetic acid] | 200 to 2000
Cc1cccc(-c2cc3c(-c4cc(F)c(N5CCC(CC(=O)O)CC5)c(F)c4)cccc3s2)c1 [Example 616, {1-[2,6-difluoro-4-(2-m-tolyl-benzo[b]thiophen-4-yl)-phenyl]-piperidin-4-yl}-acetic acid] | 200 to 2000
CC1(C)Cc2cc(Cl)cc(-c3cc(F)c(OCCCC(=O)O)c(F)c3)c2O1 [Example 253, 4-[4-(5-chloro-2,2-dimethyl-2,3-dihydro-benzofuran-7-yl)-2,6-difluoro-phenoxy]-butyric acid] | 200 to 2000
Cc1cc(OCC2CC2)nc(-c2cc(F)c(N3CCC(CC(=O)O)C3)c(F)c2)n1 (centres unmarked) [Example 576, {1-[4-(4-cyclopropylmethoxy-6-methyl-pyrimidin-2-yl)-2,6-difluoro-phenyl]-pyrrolidin-3-yl}-acetic acid] | < 200
Cc1cc(OC2CCC2)nc(-c2cc(F)c(OCC3CC3C(=O)O)c(F)c2)n1 (centres unmarked) [Example 542, 2-[4-(4-cyclobutoxy-6-methyl-pyrimidin-2-yl)-2,6-difluoro-phenoxymethyl]-cyclopropanecarboxylic acid] | < 200
COC(=O)N1c2c(cc(F)cc2-c2cc(F)c(OCCCC(=O)O)c(F)c2)CC1(C)C [Example 265, 7-[4-(3-carboxy-propoxy)-3,5-difluoro-phenyl]-5-fluoro-2,2-dimethyl-2,3-dihydro-indol-1-carboxylic acid methyl ester] | 200 to 2000
CCCOc1nc(-c2cc(F)c(N3CCC(CC(=O)O)CC3)c(F)c2)ncc1F [Example 598, {1-[2,6-difluoro-4-(5-fluoro-4-propoxy-pyrimidin-2-yl)-phenyl]-piperidin-4-yl}-acetic acid] | < 200

Other lines, results leading:

EC50 [nM] | SMILES
< 200 | O=C(O)CCCOc1c(F)cc(-c2ccc3ccn(CC4CC4)c3c2)cc1F [Example 559, 4-[4-(1-cyclopropylmethyl-1H-indol-6-yl)-2,6-difluoro-phenoxy]-butanoic acid]
< 200 | O=C(O)CCC1CC1c1c(F)cc(-c2cccnc2NC2CCCC2)cc1F (centres unmarked) [Example 183, 3-{2-[4-(2-cyclopentylamino-pyridin-3-yl)-2,6-difluoro-phenyl]-cyclopropyl}-propanoic acid]
< 200 | O=C(O)C1CC1CCNc1c(F)cc(-c2cccnc2SC2CCCC2)cc1F (centres unmarked) [Example 128, 2-[2-[4-(2-cyclopentylsulfanyl-3-pyridyl)-2,6-difluoro-anilino]ethyl]cyclopropanecarboxylic acid]
< 200 | CCOc1cc(C)nc(-c2cc(F)c(N3CCC(CC(=O)O)C3)c(F)c2)n1 (centres unmarked) [Example 590, {1-[4-(4-ethoxy-6-methyl-pyrimidin-2-yl)-2,6-difluoro-phenyl]-pyrrolidin-3-yl}-acetic acid]
< 200 | CC(CCCC(=O)O)c1c(F)cc(-c2cccc3c2OC(F)(F)O3)cc1F (centres unmarked) [Example 171, 5-[4-(2,2-difluoro-benzo[1,3]dioxol-4-yl)-2,6-difluoro-phenyl]-hexanoic acid]
< 200 | O=C(O)CC1CCN(c2c(F)cc(-c3cncc(C4CCC4)n3)cc2F)CC1 [Example 374, 2-[1-[4-(6-cyclobutylpyrazin-2-yl)-2,6-difluoro-phenyl]-4-piperidyl]acetic acid]
< 200 | CCCOc1cncc(-c2cc(F)c(N3CCC(CC(=O)O)CC3)c(F)c2)n1 [Example 341, 2-[1-[2,6-difluoro-4-(6-propoxypyrazin-2-yl)phenyl]-4-piperidyl]acetic acid]
< 200 | O=C(O)CCCOc1c(F)cc(-c2cccc(OCC3CCC3)n2)cc1F [Example 523, 4-[4-(6-cyclobutylmethoxy-pyridin-2-yl)-2,6-difluoro-phenoxy]-butyric acid]
< 200 | CCCOc1cccc(-c2cc(F)c(OCCCC(=O)O)c(F)c2)c1 [Example 19, 4-(3,5-difluoro-3′-propoxy-biphenyl-4-yloxy)-butyric acid]
< 200 | CC(C)Sc1cccc(-c2ccc3c(c2)CCC(CCC(=O)O)S3)n1 (centres unmarked) [Example 286, 3-[6-(6-isopropylsulfanyl-pyridin-2-yl)-thiochroman-2-yl]-propionic acid]
< 200 | O=C(O)C[C@H]1CCN(c2c(F)cc(-c3cccc(OCC4CC4)n3)cc2F)C1 [Example 438, {(R)-1-[4-(6-cyclopropylmethoxy-pyridin-2-yl)-2,6-difluoro-phenyl]-pyrrolidin-3-yl}-acetic acid]
< 200 | O=C(O)CCCOc1c(F)cc(-c2cccc(SC3CCC3)c2)cc1F [Example 409, 4-(3′-cyclobutylsulfanyl-3,5-difluoro-biphenyl-4-yloxy)-butyric acid]
